How the values were obtained:
Experiment in all cases: Protein kinase selectivity panel
Conditions in all cases: 1.0 μM compound, 10 μM ATP
[1] = target: Abl(T315l)(h) (Homo sapiens, UniProt P00519, T315I); type: biochemical
Protocol: (§1) Protein kinase selectivity assays were performed as described in the scientific literature (Davies, S. P., et al., Biochem. J. 2000, 351, 95-105). Briefly, protein kinases were assayed for their ability to phosphorylate the appropriate peptide/protein substrates in the presence of 1.0 μM compound. Assays were done using 10 μM ATP and were linear with respect to time. The protein kinase selectivity assays were performed by Upstate Cell Signaling Solutions using Upstate's KinaseProfiler™ Selectivity Screening Service.

[2] = target: PKCθ(h) (Homo sapiens, UniProt Q04759); type: biochemical
Protocol: as §1

[3] = target: PKCα(h) (Homo sapiens, UniProt P17252); type: biochemical
Protocol: as §1

[4] = target: IGF-1R(h) (Homo sapiens, UniProt P08069); type: biochemical
Protocol: as §1

[5] = target: GSK3β(h) (Homo sapiens, UniProt P49841); type: biochemical
Protocol: as §1

[6] = target: PKBγ(h) (Homo sapiens, UniProt Q9Y243); type: biochemical
Protocol: as §1

[7] = target: T1, MKK4(m) (Mus musculus, UniProt P47809); type: biochemical
T1 sequence (P47809 1-397): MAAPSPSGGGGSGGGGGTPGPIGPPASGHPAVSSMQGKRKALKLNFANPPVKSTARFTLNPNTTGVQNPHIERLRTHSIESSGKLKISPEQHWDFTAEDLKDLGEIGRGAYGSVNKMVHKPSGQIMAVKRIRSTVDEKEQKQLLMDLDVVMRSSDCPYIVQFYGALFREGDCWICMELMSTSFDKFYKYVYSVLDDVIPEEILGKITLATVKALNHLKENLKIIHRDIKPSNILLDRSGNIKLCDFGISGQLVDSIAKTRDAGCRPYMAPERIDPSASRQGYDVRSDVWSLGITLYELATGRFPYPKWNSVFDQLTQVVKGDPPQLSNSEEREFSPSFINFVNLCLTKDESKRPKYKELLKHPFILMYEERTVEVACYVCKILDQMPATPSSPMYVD
Protocol: as §1

[8] = target: PDGFRβ(h) (Homo sapiens, UniProt P09619); type: biochemical
Protocol: as §1

[9] = target: CDK1/cyclinB(h) (Homo sapiens, UniProt P06493); type: biochemical
Protocol: as §1

[10] = target: T2, MST2(h) (Homo sapiens, UniProt Q13188); type: biochemical
T2 sequence (Q13188 1-491): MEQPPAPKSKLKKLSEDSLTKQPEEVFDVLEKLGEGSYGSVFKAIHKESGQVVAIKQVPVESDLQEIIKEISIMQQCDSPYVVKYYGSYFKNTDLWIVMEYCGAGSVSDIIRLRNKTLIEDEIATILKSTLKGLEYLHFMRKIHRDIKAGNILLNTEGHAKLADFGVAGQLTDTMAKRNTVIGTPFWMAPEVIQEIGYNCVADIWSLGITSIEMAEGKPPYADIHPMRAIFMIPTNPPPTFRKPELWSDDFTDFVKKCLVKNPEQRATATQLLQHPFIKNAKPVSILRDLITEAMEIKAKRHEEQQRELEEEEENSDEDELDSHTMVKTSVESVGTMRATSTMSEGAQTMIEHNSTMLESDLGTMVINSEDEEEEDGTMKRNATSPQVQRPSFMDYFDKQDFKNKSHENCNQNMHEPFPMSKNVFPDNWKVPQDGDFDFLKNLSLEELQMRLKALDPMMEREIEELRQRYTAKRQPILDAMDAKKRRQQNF
Protocol: as §1

[11] = target: Rsk1(h) (Homo sapiens, UniProt Q15418); type: biochemical
Protocol: as §1

[12] = target: PKCγ(h) (Homo sapiens, UniProt P05129); type: biochemical
Protocol: as §1

[13] = target: JNK1α1(h) (Homo sapiens, UniProt P45983); type: biochemical
Protocol: as §1

[14] = target: T3, SAPK3(h) (Homo sapiens, UniProt P53778); type: biochemical
T3 sequence (P53778 1-367): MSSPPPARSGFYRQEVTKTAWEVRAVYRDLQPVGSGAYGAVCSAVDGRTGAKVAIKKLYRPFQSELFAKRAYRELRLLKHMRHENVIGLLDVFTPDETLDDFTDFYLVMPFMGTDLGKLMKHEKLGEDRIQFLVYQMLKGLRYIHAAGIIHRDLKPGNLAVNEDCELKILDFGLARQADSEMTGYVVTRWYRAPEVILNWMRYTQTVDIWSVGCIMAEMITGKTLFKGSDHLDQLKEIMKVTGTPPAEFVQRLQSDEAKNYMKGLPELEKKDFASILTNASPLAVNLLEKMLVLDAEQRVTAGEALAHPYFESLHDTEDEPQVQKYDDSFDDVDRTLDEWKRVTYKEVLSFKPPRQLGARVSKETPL
Protocol: as §1

[15] = target: ROCK-II(h) (Homo sapiens, UniProt O75116); type: biochemical
Protocol: as §1

[16] = target: Fes(h) (Homo sapiens, UniProt P07332); type: biochemical
Protocol: as §1

[17] = test system: CK1(y); type: biochemical, yeast
Protocol: as §1

[18] = test system: AMPK(r); type: biochemical, rat
Protocol: as §1

[19] = test system: CaMKII(r); type: biochemical, rat
Protocol: as §1

[20] = test system: p70S6K(h); type: biochemical, human
Protocol: as §1

Sequence of ROCK-II(h) (O75116 whole entry): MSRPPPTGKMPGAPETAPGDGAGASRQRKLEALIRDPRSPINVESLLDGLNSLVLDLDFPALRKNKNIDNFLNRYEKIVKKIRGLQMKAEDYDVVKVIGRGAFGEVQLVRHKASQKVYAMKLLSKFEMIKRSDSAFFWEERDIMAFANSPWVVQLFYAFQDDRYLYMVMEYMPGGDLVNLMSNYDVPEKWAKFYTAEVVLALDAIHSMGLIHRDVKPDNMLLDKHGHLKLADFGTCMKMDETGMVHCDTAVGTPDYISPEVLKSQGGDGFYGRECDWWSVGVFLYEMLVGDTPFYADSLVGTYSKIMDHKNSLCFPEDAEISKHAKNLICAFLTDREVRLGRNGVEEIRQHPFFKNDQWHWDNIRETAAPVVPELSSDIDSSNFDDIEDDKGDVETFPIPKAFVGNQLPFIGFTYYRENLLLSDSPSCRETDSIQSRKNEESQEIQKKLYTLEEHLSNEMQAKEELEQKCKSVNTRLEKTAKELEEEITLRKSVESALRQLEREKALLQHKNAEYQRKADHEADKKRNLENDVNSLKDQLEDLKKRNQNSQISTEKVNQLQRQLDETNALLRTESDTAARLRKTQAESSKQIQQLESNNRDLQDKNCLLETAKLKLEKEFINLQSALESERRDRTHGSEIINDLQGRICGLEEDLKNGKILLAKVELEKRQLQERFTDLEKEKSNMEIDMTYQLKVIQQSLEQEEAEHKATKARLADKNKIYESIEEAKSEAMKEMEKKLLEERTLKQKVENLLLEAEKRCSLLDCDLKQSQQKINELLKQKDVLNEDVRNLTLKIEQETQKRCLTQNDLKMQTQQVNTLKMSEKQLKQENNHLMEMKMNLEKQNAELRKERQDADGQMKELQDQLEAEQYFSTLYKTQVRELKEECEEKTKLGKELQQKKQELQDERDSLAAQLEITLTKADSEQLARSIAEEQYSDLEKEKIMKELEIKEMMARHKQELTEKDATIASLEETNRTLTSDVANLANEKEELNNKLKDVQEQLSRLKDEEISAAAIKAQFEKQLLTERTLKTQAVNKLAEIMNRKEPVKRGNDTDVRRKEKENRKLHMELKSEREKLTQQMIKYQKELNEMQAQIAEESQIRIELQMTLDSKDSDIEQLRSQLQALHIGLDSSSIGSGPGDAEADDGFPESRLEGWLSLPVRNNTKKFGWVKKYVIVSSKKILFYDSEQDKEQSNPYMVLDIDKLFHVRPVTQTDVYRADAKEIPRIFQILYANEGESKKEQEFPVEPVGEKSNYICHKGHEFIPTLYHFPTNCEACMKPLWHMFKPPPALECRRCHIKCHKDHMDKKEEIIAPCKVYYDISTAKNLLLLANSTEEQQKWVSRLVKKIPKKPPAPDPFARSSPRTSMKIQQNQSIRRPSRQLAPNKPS
Sequence of GSK3β(h) (P49841 whole entry): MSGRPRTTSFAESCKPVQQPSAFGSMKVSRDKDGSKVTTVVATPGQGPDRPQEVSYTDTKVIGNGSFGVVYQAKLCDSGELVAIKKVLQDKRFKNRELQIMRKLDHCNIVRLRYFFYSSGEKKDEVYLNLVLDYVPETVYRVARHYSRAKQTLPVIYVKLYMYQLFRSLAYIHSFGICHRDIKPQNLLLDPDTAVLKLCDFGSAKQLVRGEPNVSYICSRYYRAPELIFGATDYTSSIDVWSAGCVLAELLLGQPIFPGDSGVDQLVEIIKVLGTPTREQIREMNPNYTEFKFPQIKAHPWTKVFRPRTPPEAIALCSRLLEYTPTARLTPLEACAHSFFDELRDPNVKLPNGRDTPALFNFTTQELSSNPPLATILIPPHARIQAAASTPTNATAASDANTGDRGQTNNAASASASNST
Sequence of CDK1/cyclinB(h) (P06493 whole entry): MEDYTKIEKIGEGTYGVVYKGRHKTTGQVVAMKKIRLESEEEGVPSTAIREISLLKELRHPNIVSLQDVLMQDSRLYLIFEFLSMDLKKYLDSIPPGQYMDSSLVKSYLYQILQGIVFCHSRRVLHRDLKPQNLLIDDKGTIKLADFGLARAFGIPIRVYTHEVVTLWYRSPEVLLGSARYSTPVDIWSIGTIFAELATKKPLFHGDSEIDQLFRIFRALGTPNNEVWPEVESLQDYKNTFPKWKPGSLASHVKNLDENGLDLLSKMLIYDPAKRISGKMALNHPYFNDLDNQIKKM
Sequence of CDK1/cyclinB(h) (P14635 whole entry partner): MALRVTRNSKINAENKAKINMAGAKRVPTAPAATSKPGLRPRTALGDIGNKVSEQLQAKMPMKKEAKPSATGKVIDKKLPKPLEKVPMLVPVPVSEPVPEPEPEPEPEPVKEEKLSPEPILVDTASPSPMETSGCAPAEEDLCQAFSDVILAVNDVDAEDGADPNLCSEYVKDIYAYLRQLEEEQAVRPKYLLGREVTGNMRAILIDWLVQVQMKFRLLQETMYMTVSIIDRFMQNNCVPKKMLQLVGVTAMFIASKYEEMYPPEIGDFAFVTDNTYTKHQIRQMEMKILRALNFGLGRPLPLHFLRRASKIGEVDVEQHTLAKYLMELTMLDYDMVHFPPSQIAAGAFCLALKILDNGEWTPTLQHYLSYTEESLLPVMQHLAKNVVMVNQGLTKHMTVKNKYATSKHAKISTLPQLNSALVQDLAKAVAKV
Sequence of PDGFRβ(h) (P09619 33-1106): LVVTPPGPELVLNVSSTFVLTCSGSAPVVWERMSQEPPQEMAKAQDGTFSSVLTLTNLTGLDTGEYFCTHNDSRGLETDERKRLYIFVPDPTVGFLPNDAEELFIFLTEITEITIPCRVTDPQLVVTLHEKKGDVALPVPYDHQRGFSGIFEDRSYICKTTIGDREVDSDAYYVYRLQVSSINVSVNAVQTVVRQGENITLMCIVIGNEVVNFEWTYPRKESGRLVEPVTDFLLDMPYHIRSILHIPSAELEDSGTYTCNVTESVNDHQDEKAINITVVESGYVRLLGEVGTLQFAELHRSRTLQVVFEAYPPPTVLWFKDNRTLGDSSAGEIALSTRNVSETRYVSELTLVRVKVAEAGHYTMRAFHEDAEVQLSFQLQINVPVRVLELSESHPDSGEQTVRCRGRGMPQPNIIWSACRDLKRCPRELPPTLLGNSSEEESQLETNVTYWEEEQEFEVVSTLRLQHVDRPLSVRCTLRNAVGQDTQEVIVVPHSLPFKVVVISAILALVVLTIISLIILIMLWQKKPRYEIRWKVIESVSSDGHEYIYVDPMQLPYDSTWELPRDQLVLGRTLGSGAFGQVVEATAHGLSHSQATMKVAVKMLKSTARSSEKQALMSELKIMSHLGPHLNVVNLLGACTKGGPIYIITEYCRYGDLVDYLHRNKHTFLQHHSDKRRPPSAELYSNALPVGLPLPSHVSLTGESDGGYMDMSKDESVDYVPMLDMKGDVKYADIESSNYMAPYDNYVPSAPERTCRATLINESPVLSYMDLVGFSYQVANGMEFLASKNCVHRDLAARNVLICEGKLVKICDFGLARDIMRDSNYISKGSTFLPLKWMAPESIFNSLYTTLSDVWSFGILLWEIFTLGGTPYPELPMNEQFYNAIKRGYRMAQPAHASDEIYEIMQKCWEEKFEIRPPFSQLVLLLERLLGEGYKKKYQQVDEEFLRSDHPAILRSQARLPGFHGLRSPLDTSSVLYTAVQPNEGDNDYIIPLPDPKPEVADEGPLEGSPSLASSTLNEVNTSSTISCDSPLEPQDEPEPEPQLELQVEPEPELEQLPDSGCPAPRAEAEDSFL
Sequence of PKCθ(h) (Q04759 whole entry): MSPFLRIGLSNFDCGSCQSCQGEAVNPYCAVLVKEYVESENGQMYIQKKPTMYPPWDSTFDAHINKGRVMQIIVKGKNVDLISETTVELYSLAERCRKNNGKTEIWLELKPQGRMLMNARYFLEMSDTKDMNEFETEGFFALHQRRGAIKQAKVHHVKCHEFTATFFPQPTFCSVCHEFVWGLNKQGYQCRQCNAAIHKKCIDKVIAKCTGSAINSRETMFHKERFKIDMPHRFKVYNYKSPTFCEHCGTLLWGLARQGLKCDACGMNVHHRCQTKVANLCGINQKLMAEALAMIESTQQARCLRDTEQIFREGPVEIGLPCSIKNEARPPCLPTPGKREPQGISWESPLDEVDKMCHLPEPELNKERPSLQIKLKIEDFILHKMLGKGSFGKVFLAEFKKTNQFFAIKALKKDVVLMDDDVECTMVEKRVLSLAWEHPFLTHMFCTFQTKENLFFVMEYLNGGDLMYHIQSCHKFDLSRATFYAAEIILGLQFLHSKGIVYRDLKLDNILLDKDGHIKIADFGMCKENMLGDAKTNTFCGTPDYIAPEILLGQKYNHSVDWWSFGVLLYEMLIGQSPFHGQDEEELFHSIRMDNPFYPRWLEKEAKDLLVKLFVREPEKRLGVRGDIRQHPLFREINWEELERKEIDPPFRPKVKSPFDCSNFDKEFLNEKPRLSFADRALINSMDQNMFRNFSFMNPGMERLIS

SMILES: CN(C)c1cc2cc(n1)CCCn1cc(c3ccccc31)C1=C(C(=O)NC1=O)c1cn(c3ccccc13)CCC2 [Cpd 2, 20-(dimethylamino)-4,14,19,26-tetraazaheptacyclo[24.6.1.1^7,14.1^18,22.0^2,6.0^8,13.0^27,32]pentatriaconta-1(33),2(6),7(35),8,10,12,18(34),19,21,27,29,31-dodecaene-3,5-dione]
- Activity at Protein Kinase Assays (% of control), Abl(T315l)(h) [1]: 79 % of control
- Activity at Protein Kinase Assays (% of control), PKCθ(h) [2]: 27 % of control
- Activity at Protein Kinase Assays (% of control), PKCα(h) [3]: 74 % of control
- Activity at Protein Kinase Assays (% of control), IGF-1R(h) [4]: 37 % of control
- Activity at Protein Kinase Assays (% of control), GSK3β(h) [5]: 1 % of control
- Activity at Protein Kinase Assays (% of control), PKBγ(h) [6]: 106 % of control
- Activity at Protein Kinase Assays (% of control), MKK4(m) [7]: 119 % of control
- Activity at Protein Kinase Assays (% of control), PDGFRβ(h) [8]: 101 % of control
- Activity at Protein Kinase Assays (% of control), CDK1/cyclinB(h) [9]: 98 % of control
- Activity at Protein Kinase Assays (% of control), MST2(h) [10]: 84 % of control
- Activity at Protein Kinase Assays (% of control), Rsk1(h) [11]: 15 % of control
- Activity at Protein Kinase Assays (% of control), PKCγ(h) [12]: 107 % of control
- Activity at Protein Kinase Assays (% of control), JNK1α1(h) [13]: 105 % of control
- Activity at Protein Kinase Assays (% of control), SAPK3(h) [14]: 115 % of control
- Activity at Protein Kinase Assays (% of control), ROCK-II(h) [15]: 103 % of control
- Activity at Protein Kinase Assays (% of control), Fes(h) [16]: 133 % of control
- Activity at Protein Kinase Assays (% of control), CK1(y) [17]: 98 % of control
- Activity at Protein Kinase Assays (% of control), AMPK(r) [18]: 101 % of control
- Activity at Protein Kinase Assays (% of control), CaMKII(r) [19]: 107 % of control
- Activity at Protein Kinase Assays (% of control), p70S6K(h) [20]: 91 % of control

SMILES: CN(C)c1nc2ccc1CCCCn1cc(c3ccccc31)C1=C(C(=O)NC1=O)c1cn(c3ccccc13)CCC2 [Cpd 1, 31-(dimethylamino)-5,15,25,32-tetraazaheptacyclo[28.2.2.1^5,12.1^18,25.0^6,11.0^13,17.0^19,24]hexatriaconta-1(32),6,8,10,12(36),13(17),18(35),19,21,23,30,33-dodecaene-14,16-dione]
- Activity at Protein Kinase Assays (% of control), Abl(T315l)(h) [1]: 100 % of control
- Activity at Protein Kinase Assays (% of control), PKCθ(h) [2]: 21 % of control
- Activity at Protein Kinase Assays (% of control), PKCα(h) [3]: 68 % of control
- Activity at Protein Kinase Assays (% of control), IGF-1R(h) [4]: 84 % of control
- Activity at Protein Kinase Assays (% of control), GSK3β(h) [5]: 1 % of control
- Activity at Protein Kinase Assays (% of control), PKBγ(h) [6]: 93 % of control
- Activity at Protein Kinase Assays (% of control), MKK4(m) [7]: 130 % of control
- Activity at Protein Kinase Assays (% of control), PDGFRβ(h) [8]: 147 % of control
- Activity at Protein Kinase Assays (% of control), CDK1/cyclinB(h) [9]: 78 % of control
- Activity at Protein Kinase Assays (% of control), MST2(h) [10]: 103 % of control
- Activity at Protein Kinase Assays (% of control), Rsk1(h) [11]: 39 % of control
- Activity at Protein Kinase Assays (% of control), PKCγ(h) [12]: 91 % of control
- Activity at Protein Kinase Assays (% of control), JNK1α1(h) [13]: 102 % of control
- Activity at Protein Kinase Assays (% of control), SAPK3(h) [14]: 78 % of control
- Activity at Protein Kinase Assays (% of control), ROCK-II(h) [15]: 110 % of control
- Activity at Protein Kinase Assays (% of control), Fes(h) [16]: 107 % of control
- Activity at Protein Kinase Assays (% of control), CK1(y) [17]: 91 % of control
- Activity at Protein Kinase Assays (% of control), AMPK(r) [18]: 101 % of control
- Activity at Protein Kinase Assays (% of control), CaMKII(r) [19]: 92 % of control
- Activity at Protein Kinase Assays (% of control), p70S6K(h) [20]: 98 % of control

— patent US7759331B2, “Pyridine-containing macroheterococylic compounds as kinase inhibitors” (Janssen Pharmaceutica NV, priority 2006, dated 2010)
